# Reference: the NIST ThermoML archive (doi:10.1016/j.fluid.2016.07.022)
# ± gives the expanded uncertainty stated by the source.
# Legend:
# [1] = wn = mass fraction of the nth substance listed; settings: 298.15 K, 100 kPa, Liquid; for viscosity: Falling or rolling sphere viscometry; for speed of sound: Frequency=3 MHz, Single path-length method; for mass density: Vibrating tube method
# [2] = 101.33 kPa, Liquid; for viscosity: Falling or rolling sphere viscometry; for speed of sound: Frequency=3 MHz, Single path-length method; for mass density: Vibrating tube method
SMILES,viscosity ([2]; 293.15 K) [mPa·s],speed of sound ([2]; 293.15 K) [m/s],mass density ([2]; 293.15 K) [kg/m3],viscosity ([2]; 298.15 K) [mPa·s],speed of sound ([2]; 298.15 K) [m/s],mass density ([2]; 298.15 K) [kg/m3],viscosity ([2]; 303.15 K) [mPa·s],speed of sound ([2]; 303.15 K) [m/s],mass density ([2]; 303.15 K) [kg/m3],viscosity ([2]; 308.15 K) [mPa·s],speed of sound ([2]; 308.15 K) [m/s],mass density ([2]; 308.15 K) [kg/m3],viscosity ([2]; 313.15 K) [mPa·s],speed of sound ([2]; 313.15 K) [m/s],mass density ([2]; 313.15 K) [kg/m3],viscosity ([2]; 318.15 K) [mPa·s],speed of sound ([2]; 318.15 K) [m/s],mass density ([2]; 318.15 K) [kg/m3],viscosity ([2]; 323.15 K) [mPa·s],speed of sound ([2]; 323.15 K) [m/s],other results
CCCC(=O)[O-].CCCC[NH2+]CCO [N-(2-hydroxyethyl)butan-1-aminium butyrate] + O,,,,,,,,,,,,,,,,,,,,,viscosity ([1]; w2 = 0.002762): 197.67 ± 9.7 mPa·s; viscosity ([1]; w2 = 0.004186): 190.86 ± 9.1 mPa·s; viscosity ([1]; w2 = 0.005795): 185.52 ± 8.7 mPa·s; viscosity ([1]; w2 = 0.006761): 182.63 ± 8.4 mPa·s; speed of sound ([1]; w2 = 0.002762): 1464.6 ± 3.7 m/s; speed of sound ([1]; w2 = 0.004186): 1466.2 ± 3.7 m/s; speed of sound ([1]; w2 = 0.005795): 1467.9 ± 3.7 m/s; speed of sound ([1]; w2 = 0.006761): 1468.9 ± 3.7 m/s; mass density ([1]; w2 = 0.002762): 980.15 ± 5.2 kg/m3; mass density ([1]; w2 = 0.004186): 981.17 ± 5.2 kg/m3; mass density ([1]; w2 = 0.005795): 982.18 ± 5.2 kg/m3; mass density ([1]; w2 = 0.006761): 982.74 ± 5.2 kg/m3
CCC(=O)[O-].CCCC[NH2+]CCO [N-(2-hydroxyethyl)butan-1-aminium propionate],675.6 ± 60,1513.8 ± 3.7,1004.9 ± 2.6,502.6 ± 40,1496.1 ± 3.7,1001.4 ± 2.6,385.1 ± 27,1478.9 ± 3.7,997.9 ± 2.6,282.1 ± 17,1462.2 ± 3.7,994.4 ± 2.6,212 ± 11,1445.9 ± 3.7,990.8 ± 2.6,155 ± 6.3,1429.7 ± 3.7,987.3 ± 2.6,115.6 ± 4,1413.7 ± 3.7,mass density ([2]; 323.15 K): 983.6 ± 2.6 kg/m3; viscosity ([2]; 328.15 K): 87.6 ± 2.8 mPa·s; speed of sound ([2]; 328.15 K): 1397.4 ± 3.7 m/s; mass density ([2]; 328.15 K): 979.9 ± 2.6 kg/m3; viscosity ([2]; 333.15 K): 67.4 ± 2.3 mPa·s; speed of sound ([2]; 333.15 K): 1381.6 ± 3.7 m/s; mass density ([2]; 333.15 K): 976.3 ± 2.6 kg/m3; viscosity ([2]; 338.15 K): 52.4 ± 2.2 mPa·s; speed of sound ([2]; 338.15 K): 1365.8 ± 3.7 m/s; mass density ([2]; 338.15 K): 972.5 ± 2.6 kg/m3; viscosity ([2]; 343.15 K): 41.6 ± 2.1 mPa·s; speed of sound ([2]; 343.15 K): 1350.1 ± 3.7 m/s; mass density ([2]; 343.15 K): 968.8 ± 2.6 kg/m3
CCCCC(=O)[O-].CCCC[NH2+]CCO [N-(2-hydroxyethyl)butan-1-aminium pentanoate],896.3 ± 88,1460 ± 3.7,970 ± 2.6,684.1 ± 61,1442.3 ± 3.7,966.5 ± 2.6,505.8 ± 40,1425.1 ± 3.7,963 ± 2.6,349.9 ± 24,1408.3 ± 3.7,959.4 ± 2.6,244.1 ± 14,1391.8 ± 3.7,955.8 ± 2.6,177.1 ± 8,1375.7 ± 3.7,952.2 ± 2.5,131.1 ± 4.8,1359.6 ± 3.7,mass density ([2]; 323.15 K): 948.5 ± 2.5 kg/m3; viscosity ([2]; 328.15 K): 98.1 ± 3.2 mPa·s; speed of sound ([2]; 328.15 K): 1343.8 ± 3.7 m/s; mass density ([2]; 328.15 K): 944.8 ± 2.5 kg/m3; viscosity ([2]; 333.15 K): 73.9 ± 2.5 mPa·s; speed of sound ([2]; 333.15 K): 1328 ± 3.7 m/s; mass density ([2]; 333.15 K): 941.1 ± 2.5 kg/m3; viscosity ([2]; 338.15 K): 57.9 ± 2.2 mPa·s; speed of sound ([2]; 338.15 K): 1312.2 ± 3.7 m/s; mass density ([2]; 338.15 K): 937.4 ± 2.5 kg/m3; viscosity ([2]; 343.15 K): 45.4 ± 2.1 mPa·s; speed of sound ([2]; 343.15 K): 1296.6 ± 3.7 m/s; mass density ([2]; 343.15 K): 933.6 ± 2.5 kg/m3
